Test results as given in patent publication US4053635A, “Substituted amides of 3-methyl-4-phenyl-3-butenoic acid, with a high hypolipemizing activity” (Istituto Biochimico Italiano di Loredana Lorenzini S.a.s., priority 1974, dated 1977).

Legend:
[1] = hyperlipemia from diet (Table III); type: in vivo, Sprague-Dawley male rat; settings: 200 mg/kg/day per os; for Hepatic Cholesterol ± SE: hyperlipidic diet 4 weeks (diet alone 16.4±0.8); for Hepatic triglycerides ± SE: hyperlipidic diet 4 weeks (diet alone 56.4+3.8); for Triglyceridemia ± ES: hyperlipidic diet 4 weeks (diet alone 117.3±17.7); for Cholesterolemia ± SE: hyperlipidic diet 4 weeks (diet alone 129.9±9.3)
Text: °In parentheses, significativity towards the set treated only with
*Animal: Sprague-Dawley male rat of the initial weight of 120 g (in
parentheses the N. of animals).
Treatment: Hyperlipemia derived from hyperlipidic diet according to Nath N. et al., Nutrition J. 67, 289, 1959; the diet has been administered for 4 weeks. Each drug has been administered at the dose of 200/mg/kg/day per os for 4 weeks.

[2] = hypertriglyceridemia from Fructose (Table II); type: in vivo, Sprague-Dawley male rat; settings: 200 mg/kg day by gastric probing, 5 days
Protocol: *Animal: Sprague-Dawley male rat, 150 g.; 6 rat sets. Treatment accordin
to E. A. Nikkila et al., Life sci.5,89,1966; substances administered at
the dose of 200 mg/kg day by gastric probing in two daily administrations

[3] = former works (U.S. Pat. No. 3,231,469; Canonica et al.); cited from earlier work
[4] = hypertriglyceridemia from ethanol (Table IV); type: in vivo, Sprague-Dawley male rat; settings: 300 mg/kg daily, gastric intubation; ethanol twice a day, 4 days (controls 74.20±3.70, ethanol 135.80±13.30)
Protocol: | *Animal: Sprague-Dawley male rat of the average weight of 150 g. | Treatment: 0.31 ml. ethanol in 4 ml. water twice a day (in parenthesis, | the N. of animals) for 4 days. The substances have been provided by | gastric intubation at the daily dose of 300 mg/kg.

in vivo = settings: rat, po, read-out: LD 50 per os in the rat
[5] = toxicity in the test animal; settings: in vivo
[6] = hyperlipemia from ethanol (Table V); type: in vivo, Sprague-Dawley male rat; settings: gastric intubation; for cholesterolemia: ethyl alcohol 10% 1 week (controls 85±6, ethanol 90±4); for Triglyceridemia ±SE: ethyl alcohol 10% 1 week (controls 87±14, ethanol 238±44)
Protocol: Sprague-Dawley male rat of the average weight of 150 g. ethyl alcohol 10%
in water for 1 week (in parenthesis, the N. of animals). The substances
have been administered by gastric intubation at the dose of 200 and 300
mg/kg/day. In experiments of subchronic toxicity, the diethylamide of […]

[7] = experiments of subchronic toxicity; type: in vivo; settings: per os, 150 mg/kg/day and 300 mg/kg/day, 3 or 6 months
Protocol: mg/kg/day. In experiments of subchronic toxicity, the diethylamide of
the doses of 150 mg/kg/day and of 300 mg/kg/day for 3 or 6 months: the […]

[8] = 1st experiment (controls 41.7±1.7, fructose 62.9±5.5)
[9] = 2nd experiment (controls 45.6±4.7, fructose 94.0±12.1)
[10] = 3rd experiment (controls 77.1±12.1, fructose 155.2±19.2)
[11] = 4th experiment (controls 45.3±4.5, fructose 87.4±14.4)

Structure (SMILES)	Hepatic Cholesterol ± SE [1] [mg/g fresh tissue]	Hepatic triglycerides ± SE [1] [mg/g fresh tissue]	Triglyceridemia ± ES [1] [mg/100 ml]	Cholesterolemia ± SE [1] [mg/100 ml]	Triglyceridemia ±SE [2, 8] [mg/100 ml]	Triglyceridemia ±SE [2, 9] [mg/100 ml]	Triglyceridemia ±SE [2, 10] [mg/100 ml]	Triglyceridemia ±SE [2, 11] [mg/100 ml]	Triglyceridemia ±SE [4] [mg/100 ml]	LD50 (in vivo) [mg/kg]	also measured
C/C(=C\c1ccccc1)CC(=O)O [I, 3-methyl-4-phenyl-3-butenoic acid]	20.2±0.9	37.7±5.6	91.5±13.6	142.4±7.7	42.8±3.7	40.8±4.5	100.8±13.8	57.6±2.6	275.11±31.63		hypolipemic characteristics [3]: interesting hypolipemic characteristics
C/C(=C\c1ccccc1)CC(=O)NCCO [IIIa, Monoethanolamide of 3-methyl-4-phenyl-3-butenoic acid]					62.9±6.4						
C/C(=C\c1ccccc1)CC(=O)NC1CCCCC1 [IIIb, Monocyclohexylamide of 3-methyl-4-phenyl-3-butenoic acid]	22.1±1.1	37.5±3.0	81.5±7.9	135.7±11.6		59.1±7.5				3000	
C/C(=C\c1ccccc1)CC(=O)N(CCO)CCO [IIIc, Diethanolamide of 3-methyl-4-phenyl-3-butenoic acid]						69.6±3.9				1500	
CCN(CC)C(=O)C/C(C)=C/c1ccccc1 [IIId, Diethylamide of 3-methyl-4-phenyl-3-butenoic acid]	19.4±0.7	25.9±3.8	77.4±7.5	124.9±4.6			87.1±13.4		90.0±14.83		toxicity in the test animal [5]: low toxicity; cholesterolemia ([6]; 200 mg/kg/day): 77±3 mg/100 ml; Triglyceridemia ±SE ([6]; 200 mg/kg/day): 169±20 mg/100 ml; cholesterolemia ([6]; 300 mg/kg/day): 81±3 mg/100 ml; Triglyceridemia ±SE ([6]; 300 mg/kg/day): 117±20 mg/100 ml; tolerability in subchronic toxicity [7]: fairly well tolerated
C/C(=C\c1ccccc1)CC(=O)N1CCOCC1 [IIIe, Morpholide of 3-methyl-4-phenyl-3-butenoic acid]								61.1±5.1		1000	
C/C(=C\c1ccccc1)CC(N)=O [II]											hypolipemic characteristics [3]: interesting hypolipemic characteristics
CCOC(=O)C(C)(C)Oc1ccc(Cl)cc1 [chlofibrate, ethyl ester of 2-(p-chlorophenoxy)-2-methyl propanoic acid, reference compound]	18.5±1	30.3±2.5	60.0±4.3	138.8±10.7	42.2±5.4	48.9±2.4	62.9±7.2	59.1±3.6	121.50±12.26		cholesterolemia ([6]; 200 mg/kg/day): 70±3 mg/100 ml; Triglyceridemia ±SE ([6]; 200 mg/kg/day): 183±29 mg/100 ml
